Data set [1] can be described thus: PAMPA permeability. The format is in vitro ADME. For orientation: PAMPA measures passive passage across an artificial lipid membrane.
Data set [2] is described as follows: Solubility. The data set is classed as physicochemical.
Data set [3] deals with Caco-2. The data set can be described thus: Caco-2 permeability. The format is in vitro ADME. The source says:
Several model systems are available, employing monolayers of various cell types, for evaluation of active transport of pharmaceutically active substances. For example, monolayers of Caco-2 intestinal epithelial cells can be used to evaluate active transport of substances between the intestine and the bloodstream. When plated on a surface which allows the flow of material from apical to basolateral and vice versa, such cells form a biological membrane which can be used to simulate physiological absorption and bio-availability. In another example, mouse brain capillary endothelial cell (MBEC) lines have been established to evaluate active transport in and out of the central nervous system. Another example of such cells is HT29 human colon carcinoma cells. Further, monolayers expressing particular transporter proteins can be established using transfected cells. For example, Sasaki et al (2002) J. Biol. Chem. 8:6497 used a double-transfected Madin-Darby canine kidney cell monolayer to study transport of organic anions.

Data set [4] addresses PDE5 (Homo sapiens, UniProt O76074). The data set can be described thus: Phosphodiesterase inhibition PDE-5 human. The format is biochemical. The method, then: (§1) Phosphodiesterase inhibition was determined by methods known to one of skill in the art.
Data set [5] can be described thus: RLM stability T1/2. The data set is classed as in vitro ADME. The conditions noted are these: rat, liver microsomes. (Liver microsomes are a subcellular fraction often used to study metabolism.)
Data set [6] has as its target PDE-5 (Bos taurus, UniProt Q28156). The data set can be described thus: Phosphodiesterase inhibition PDE-5 bovine. The format is biochemical. As to the method:
as §1

Data set [7] in a line: Non-specific binding. The data set is classed as in vitro ADME.
The nature of data set [8]: in vitro.
Data set [9] can be described thus: Cytotox GC50. The data set is classed as cell-based.
A short description of data set [10]: Cytotox LC50. The conditions noted are these: read-out: Cytotox LC50 Acute.
The mark [11] stands for this setting: pH 2.7, aqueous buffer, read-out: Solubility pH 2.7.
[12] abbreviates: pH 7.4, aqueous buffer, read-out: Solubility pH 7.4.

In brackets after ≈: the same amount, converted by molar mass. Like-named read-outs stand apart in the source and are kept apart here. Bounds are passed on as bounds.

As to `CCCc1nc(C)c2c(=O)[nH]c(-c3cc(S(=O)(=O)N4CCCC4C(=O)N(C)C)ccc3OCC)nn12` (stereo not shown) [Compound 5], the “PAMPA Hex” value in data set [1] was 13.18 10^−6. Moreover, the results for the solubility in data set [2] (setting [11]) and in [2] (setting [12]) were 100 µM (≈ 51.7 µg/mL) and 93 µM (≈ 48 µg/mL), respectively. The “Caco-2 AtoB” value in data set [3] is 19.4 10^−6. Also, the “Caco-2 BtoA” value in data set [3] is 60.2 10^−6. Also, the figures for the half-inhibitory concentration (IC50) in data set [4] and in data set [6] were 2.3 nM and 1.6 nM, respectively. The half-life (as a rule, the time needed for the level to fall by half in the phase considered) in data set [5] turned out to be 30.1 min.

On to `CCCc1nc(C)c2c(=O)[nH]c(-c3cc(S(=O)(=O)N(C)CC(=O)N(CC)CC)ccc3OCC)nn12` [Compound 8], for which, in [1], the “PAMPA Hex” value is recorded as 21.81 10^−6. Besides, the “Non-Spec Binding” value in data set [7] was 19%. In addition, the solubility in [2] (setting [11]) and in data set [2] (setting [12]) was > 100 µM in each case. For the same molecule, the “Caco-2 AtoB” value in data set [3] is 42.03 10^−6. Besides, the “Caco-2 BtoA” value in [3] is 77.41 10^−6. Moreover, in data set [4], the midpoint of inhibition, the IC50, lay at 0.78 nM. In data set [5], this molecule returned a half-life of 15 min.

For `CCCc1nc(C)c2c(=O)[nH]c(-c3cc(S(=O)(=O)N[C@@H](C)C(=O)N(C)C)ccc3OCC)nn12` [Compound 17], the CC50 in [8] is ≥ 100000 nM. Besides, in [9], the “Cytotox GC50” value was 100000 nM. In addition, the “PAMPA Hex” value in [1] was 0.26 10^−6. The solubility (usually the concentration that dissolves in the medium under given conditions) was 70 µM (≈ 34.4 µg/mL) in data set [2] (setting [11]) and 78.4 µM (≈ 38.5 µg/mL) in data set [2] (setting [12]). Moreover, the IC50 (as a rule, the concentration that gives 50% inhibition) in data set [4] is 0.66 nM.

For the molecule `CCCc1nc(C)c2c(=O)[nH]c(-c3cc(S(=O)(=O)N(C)CC(=O)N(C)CCN(C)C)ccc3OCC)nn12` [Compound 9], in [1], the “PAMPA Hex” value is 0.03 10^−6. Also, the “Non-Spec Binding” value in data set [7] was found to be 9.8%. Moreover, in data set [2] (setting [11]), the solubility was > 100 µM. In data set [2] (setting [12]), the solubility was > 100 µM. In data set [3], the “Caco-2 AtoB” value was 2.33 10^−6 and the “Caco-2 BtoA” value was 11.31 10^−6. Moreover, the concentration for half-maximal inhibition (IC50) in data set [4] came to 1.5 nM.

Take `CCCc1nc(C)c2c(=O)[nH]c(-c3cc(S(=O)(=O)NC(C)(C)C(=O)N(C)C)ccc3OCC)nn12` [Compound 19]: the CC50 in [8] was ≥ 100000 nM. In addition, the “Cytotox GC50” value in [9] was 100000 nM. Besides, the “PAMPA Hex” value in data set [1] is 0.17 10^−6. For the same molecule, the solubility in data set [2] (setting [11]) was > 100 µM. For the same molecule, the solubility in [2] (setting [12]) was 7.1 µM (≈ 3.58 µg/mL). For the same molecule, in data set [3], the “Caco-2 AtoB” value is reported as 2.43 10^−6 and the “Caco-2 BtoA” value is recorded as 33 10^−6. The IC50 in data set [4] was 0.193 nM.

`CCCc1nc(C)c2c(=O)[nH]c(-c3cc(S(=O)(=O)N(CC)CC(=O)N(CC)CC)ccc3OCC)nn12` [Compound 10]: the “PAMPA Hex” value in data set [1] is given as 67.04 10^−6. The solubility in [2] (setting [11]) stood at 77.9 µM (≈ 41.5 µg/mL); in data set [2] (setting [12]) it was 78.5 µM (≈ 41.8 µg/mL). This molecule also yielded an IC50 in data set [4] of 0.32 nM.

In the case of `CCCc1nc(C)c2c(=O)[nH]c(-c3cc(S(=O)(=O)N(C)CC(=O)N4CCN(C)CC4)ccc3OCC)nn12` [Compound 7], the “PAMPA Hex” value in data set [1] is 0.18 10^−6. The “Non-Spec Binding” value in [7] is on record as 2.6%. The solubility in [2] (setting [11]) and in data set [2] (setting [12]) was > 100 µM throughout. Besides, the “Caco-2 AtoB” value in [3] is reported as 4.35 10^−6. In addition, in data set [3], the “Caco-2 BtoA” value is 35.58 10^−6. Besides, the half-inhibitory concentration (IC50) in data set [4] is 0.535 nM.

With `CCCc1nc(C)c2c(=O)[nH]c(-c3cc(S(=O)(=O)N(C)[C@@H](C)C(=O)NC)ccc3OCC)nn12` [Compound 13], in data set [8], the CC50 is ≥ 100000 nM. For the same molecule, in data set [9], the “Cytotox GC50” value was determined as 94000 nM. The “PAMPA Hex” value in data set [1] is 0.42 10^−6. In addition, the solubility in [2] (setting [11]) stood at 69.4 µM (≈ 34 µg/mL); in data set [2] (setting [12]) it was 74.6 µM (≈ 36.6 µg/mL). Besides, the IC50 in [4] amounted to 0.17 nM.

For `CCCc1nc(C)c2c(=O)[nH]c(-c3cc(S(=O)(=O)N(C)[C@@H](C)C(=O)N(C)C)ccc3OCC)nn12` [Compound 12], the values for the CC50 in data set [8] and in data set [10] were ≥ 100000 nM and 100000 nM, respectively. Also, the “Cytotox GC50” value in data set [9] amounted to 99300 nM. The “PAMPA Hex” value in data set [1] is listed as 13.93 10^−6. Also, in [7], the “Non-Spec Binding” value is 30.7%. Also, the results for the solubility in data set [2] (setting [11]) and in data set [2] (setting [12]) were 96 µM (≈ 48.4 µg/mL) and 100 µM (≈ 50.5 µg/mL), respectively. Besides, the “Caco-2 AtoB” value in data set [3] is reported as 33.39 10^−6. For the same molecule, in data set [3], the “Caco-2 BtoA” value is 50.43 10^−6. The molecule also had an IC50 in data set [4] of 0.298 nM. The half-life in data set [5] was determined as 32.2 min.

In the case of `CCCc1nc(C)c2c(=O)[nH]c(-c3cc(S(=O)(=O)N(C)CC(=O)NC)ccc3OCC)nn12` [Compound 21], in data set [1], the “PAMPA Hex” value was 0.24 10^−6. The solubility in data set [2] (setting [11]) was > 100 µM. For the same molecule, the solubility in [2] (setting [12]) was > 100 µM. Further, in data set [3], the “Caco-2 AtoB” value is 5.15 10^−6 and the “Caco-2 BtoA” value is recorded as 31.45 10^−6. The same molecule registered an IC50 in data set [4] of 0.25 nM.

Regarding `CCCc1nc(C)c2c(=O)[nH]c(-c3cc(S(=O)(=O)N(C)CC(=O)N4CCOCC4)ccc3OCC)nn12` [Compound 6], the “PAMPA Hex” value in data set [1] is on record as 0.78 10^−6. In addition, the “Non-Spec Binding” value in data set [7] amounted to 7.3%. The solubility in data set [2] (setting [11]) was > 100 µM. The solubility in data set [2] (setting [12]) is > 100 µM. Moreover, in data set [3], the “Caco-2 AtoB” value is recorded as 11.16 10^−6 and the “Caco-2 BtoA” value is 55.15 10^−6. Further, inhibition in [4] was half-maximal at 0.68 nM (IC50).

`CCCc1nc(C)c2c(=O)[nH]c(-c3cc(S(=O)(=O)N(C)C(C)(C)C(=O)NC)ccc3OCC)nn12` [Compound 15]: the CC50 in data set [8] was ≥ 100000 nM. Moreover, the “Cytotox GC50” value in data set [9] amounted to 95000 nM. Moreover, the “PAMPA Hex” value in data set [1] is reported as 0.25 10^−6. In addition, in data set [3], the “Caco-2 AtoB” value is 6.8 10^−6 and the “Caco-2 BtoA” value is given as 34.9 10^−6. In data set [4], the IC50 worked out at 0.256 nM.

Regarding `CCCc1nc(C)c2c(=O)[nH]c(-c3cc(S(=O)(=O)N[C@H](C)C(=O)N(C)C)ccc3OCC)nn12` [Compound 18], the CC50 in [8] is ≥ 100000 nM. In data set [9], the “Cytotox GC50” value amounted to 100000 nM. For the same molecule, the “PAMPA Hex” value in data set [1] is 0.18 10^−6. Also, the solubility in [2] (setting [11]) was found to be 70.3 µM (≈ 34.5 µg/mL); in data set [2] (setting [12]), 75.8 µM (≈ 37.2 µg/mL). In data set [4], this molecule gave an IC50 of 0.36 nM.

Take `CCCc1nc(C)c2c(=O)[nH]c(-c3cc(S(=O)(=O)N(C)CC(=O)N(C)CC(=O)N(C)C)ccc3OCC)nn12` [Compound 4]: in data set [1], the “PAMPA Hex” value is 0.47 10^−6. Moreover, in [1] (Lec), the “PAMPA Lec” value is recorded as 0.056 10^−6. The “Non-Spec Binding” value in [7] is listed as 7%. Further, the results for the solubility in data set [2] (setting [11]) and in data set [2] (setting [12]) were 112 µM (≈ 62.9 µg/mL) and 109 µM (≈ 61.2 µg/mL), respectively. For the same molecule, the “Caco-2 AtoB” value in [3] is 2.97 10^−6. In addition, the “Caco-2 BtoA” value in data set [3] is listed as 25.95 10^−6. Besides, the results for the IC50 in [4] and in data set [6] were 0.11 nM and 0.084 nM, respectively. The half-life in data set [5] amounted to 64 min.

Regarding `CCCc1nc(C)c2c(=O)[nH]c(-c3cc(S(=O)(=O)N(C)C4(C(=O)N(C)C)CC4)ccc3OCC)nn12` [Compound 16], the CC50 in data set [8] was ≥ 100000 nM. The “Cytotox GC50” value in data set [9] came to 100000 nM. Also, the “PAMPA Hex” value in data set [1] is listed as 3.41 10^−6. The solubility in data set [2] (setting [11]) amounted to 74.7 µM (≈ 38.6 µg/mL); in data set [2] (setting [12]), 82.5 µM (≈ 42.6 µg/mL). This molecule also returned an IC50 in data set [4] of 0.42 nM.

For `CCCc1nc(C)c2c(=O)[nH]c(-c3cc(S(=O)(=O)N(C)[C@H](C)C(=O)NC)ccc3OCC)nn12` [Compound 14], the CC50 in [8] is ≥ 100000 nM. In data set [9], the “Cytotox GC50” value came to 88000 nM. The “PAMPA Hex” value in [1] is reported as 0.47 10^−6. In addition, the solubility worked out at 62.6 µM (≈ 30.7 µg/mL) in data set [2] (setting [11]) and 64 µM (≈ 31.4 µg/mL) in [2] (setting [12]). The same molecule returned an IC50 in data set [4] of 0.35 nM.
